Assay results taken from patent US4737510A, “Bioactive metabolites from the caribbean sponge agelas coniferin” (priority 1986, dated 1988).
Several values for one entry are separate records, joined by “and”; a condition that tells them apart may be missing. Identical values can stand only once. Like-named read-outs stand apart in the source and are kept apart here.

How the values were obtained:
[1] = system: Escherichia coli; assay: Disc diffusion antimicrobial assay, Escherichia coli; assay type: cell-based; conditions: for zone of inhibition at 10 µg/disc / zone of inhibition at 50 µg/disc / zone of inhibition at 100 µg/disc: Escherichia coli, 6.5 mm disc, read-out: diameter of the clear zone of inhibition; for zone of inhibition at 10 µg/disc / activity against Escherichia coli: 10 μg/disk; for zone of inhibition at 50 µg/disc: 50 μg/disk; for zone of inhibition at 100 µg/disc: 100 μg/disk
[2] = system: Bacillus subtilis; assay: Disc diffusion antimicrobial assay, Bacillus subtilis; assay type: cell-based; conditions: for zone of inhibition at 10 µg/disc / zone of inhibition at 50 µg/disc / zone of inhibition at 100 µg/disc: Bacillus subtilis, 6.5 mm disc, read-out: diameter of the clear zone of inhibition; for zone of inhibition at 50 µg/disc: 50 μg/disk; for zone of inhibition at 100 µg/disc: 100 μg/disk
[3] = system: Herpes simplex virus, type I (HSV-1); assay: microbe, parasite or virus in culture; assay type: cell-based; conditions: for zone of inhibition at 20 µg/disc / zone of inhibition at 50 µg/disc / zone of inhibition at 100 µg/disc / zone of inhibition at 200 µg/disc: Human alphaherpesvirus 1, in Primates
[4] = system: vesicular stomatitis virus (VSV); assay: microbe, parasite or virus in culture; assay type: cell-based; conditions: Vesicular stomatitis virus, in Primates
[5] = system: Herpes Simplex Virus type 1 (HSV-1); assay: Antiviral activity against HSV-1 determined by Dr. R. G. Hughes, Jr.;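 note: grades: +++ strong ++ moderate + light ± questionable - negative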; assay type: cell-based
[6] = system: E. coli strain BR339; assay type: cell-based
[7] = system: Balanus amphitrite amphitrite; assay: Barnacle settlement assay, facilitation; assay type: in vivo, Balanus amphitrite amphitrite (barnacle); conditions: Amphibalanus amphitrite
[8] = Stability of isolated solids; assay type: physicochemical; conditions: diacetate salts, amorphous solids
[9] = Water solubility (in words); assay type: physicochemical; conditions: relative to 1a-6a
[10] = system: Monkey Kidney Cells (CV-1); assay: Cytotoxicity to monkey kidney cells (CV-1) determined by Dr. R. G. Hughes, Jr.; conditions: 8 or less essentially indicates noncytotoxicity
[11] = system: Balanus amphitrite amphitrite; assay: Barnacle settlement assay, inhibition; assay type: in vivo, Balanus amphitrite amphitrite (barnacle); conditions: Amphibalanus amphitrite
[12] = read-out: antiviral activity, HSV-1, ++ scale
[13] = read-out: antiviral activity, HSV-1, zone diameter
[14] = read-out: antiviral activity, VSV, ++ scale
[15] = read-out: antiviral activity, VSV, zone diameter

SMILES | zone of inhibition at 10 µg/disc [1] [mm] | zone of inhibition at 50 µg/disc [1] [mm] | zone of inhibition at 100 µg/disc [1] [mm] | zone of inhibition at 10 µg/disc ([2]; 10 μg/disk) [mm] | zone of inhibition at 50 µg/disc [2] [mm] | zone of inhibition at 100 µg/disc [2] [mm] | zone of inhibition at 20 µg/disc [3, 12] [mm] | zone of inhibition at 50 µg/disc [3, 12] [mm] | zone of inhibition at 100 µg/disc [3, 12] [mm] | zone of inhibition at 200 µg/disc [3, 12] [mm] | zone of inhibition at 20 µg/disc [3, 13] [mm] | zone of inhibition at 100 µg/disc [3, 13] [mm] | zone of inhibition at 200 µg/disc [3, 13] [mm] | zone of inhibition at 20 µg/disc [4, 14] [mm] | zone of inhibition at 100 µg/disc [4, 14] [mm] | zone of inhibition at 200 µg/disc [4, 14] [mm] | zone of inhibition at 20 µg/disc [4, 15] [mm] | zone of inhibition at 100 µg/disc [4, 15] [mm] | HSV-1 activity ([5]; 25 μg/disk) | HSV-1 activity ([5]; 50 μg/disk) | further results
NC1=NC(=O)C(C2C(CNC(=O)c3cc(Br)c[nH]3)C(CNC(=O)c3cc(Br)c[nH]3)C2c2cnc(N)[nH]2)N1 (centres unmarked) [Compound 8a, Oxysceptrin Acetate] | 0 | 8 | 10 | 0 | 14 | 15 | < 7 | 8 to 10 | 11 to 15 | 11 to 15 | 0 | 11 | 12 | < 7 | 8 to 10 | 8 to 10 | 0 | 8 | - | - | antiviral zone appearance [3]: diffuse zones; zone of inhibition at 50 µg/disc [4, 14]: < 7 mm; zone of inhibition at 50 µg/disc [4, 15]: 0 mm; HSV-1 activity ([5]; 100 μg/disk): +; BIA activity [6]: inducers; BIA activity, numerical color intensity scale 0-10 [6]: 9 and 6; BIA zone appearance [6]: more diffuse zone; EC50 [7]: 0.017 µg/mL; stability [8]: stable; water solubility [9]: more water soluble; cytotoxicity, zone diameter ([10]; 25 μg/disk): 5 mm; cytotoxicity, zone diameter ([10]; 50 μg/disk): 5 mm; cytotoxicity, zone diameter ([10]; 100 μg/disk): 6 mm
Nc1ncc([C@@H]2[C@@H](CNC(=O)c3ccc[nH]3)[C@H](CNC(=O)c3cc(Br)c[nH]3)[C@H]2c2cnc(N)[nH]2)[nH]1 (relative stereo) [Compound 1a, Debromosceptrin Acetate] | 0 | 8 | 11 | 7 | 11 | 12 | 11 to 15 | 11 to 15 | 11 to 15 | > 16 | 11 | 15 | 18 | < 7 | 7 | 8 to 10 | 0 | 7 | ± | ± | growth inhibition of Bacillus subtilis ([2]; 10 μg/disk): most active; zone of inhibition at 50 µg/disc [3, 13]: 12 mm; zone of inhibition at 50 µg/disc [4, 14]: < 7 mm; zone of inhibition at 50 µg/disc [4, 15]: 0 mm; zone of inhibition at 200 µg/disc [4, 15]: 8 mm; HSV-1 activity ([5]; 100 μg/disk): ±; BIA activity [6]: inducers; BIA activity, numerical color intensity scale 0-10 [6]: 10 and 7 and 6; cytotoxicity, zone diameter ([10]; 25 μg/disk): 5 mm; cytotoxicity, zone diameter ([10]; 50 μg/disk): 5 mm; cytotoxicity, zone diameter ([10]; 100 μg/disk): 5 mm
Nc1ncc(C2c3nc(N)[nH]c3CC(CNC(=O)c3cc(Br)c[nH]3)C2CNC(=O)c2cc(Br)c[nH]2)[nH]1 (centres unmarked) [Compound 4a, Ageliferin Acetate] | 7 | 9 | 9 | 10 | 15 | 16 | 8 to 10 | 11 to 15 | 11 to 15 | > 16 | 10 | 14 | 17 | < 7 | 8 to 10 | 11 to 15 | 0 | 10 | - | + | activity against Escherichia coli [1]: active; zone of inhibition at 50 µg/disc [3, 13]: 13 mm; zone of inhibition at 50 µg/disc [4, 14]: 8 to 10 mm; zone of inhibition at 50 µg/disc [4, 15]: 8 mm; zone of inhibition at 200 µg/disc [4, 15]: 12 mm; HSV-1 activity ([5]; 100 μg/disk): ++; EC50 [11]: 21 µg/mL; cytotoxicity, zone diameter ([10]; 25 μg/disk): 5 mm; cytotoxicity, zone diameter ([10]; 50 μg/disk): 5 mm; cytotoxicity, zone diameter ([10]; 100 μg/disk): 8 mm
Nc1ncc(C2c3nc(N)[nH]c3CC(CNC(=O)c3cc(Br)c(Br)[nH]3)C2CNC(=O)c2cc(Br)c[nH]2)[nH]1 (centres unmarked) [Compound 5a, Bromoageliferin Acetate] | 7 | 8 | 8 | 10 | 12 | 12 | 8 to 10 | 11 to 15 | 11 to 15 | 11 to 15 | 9 | 11 | 13 | < 7 | 8 to 10 | 8 to 10 | 0 | 10 | - | ± | activity against Escherichia coli [1]: active; zone of inhibition at 50 µg/disc [3, 13]: 11 mm; zone of inhibition at 50 µg/disc [4, 14]: < 7 mm; zone of inhibition at 50 µg/disc [4, 15]: 0 mm; zone of inhibition at 200 µg/disc [4, 15]: 10 mm; HSV-1 activity ([5]; 100 μg/disk): ++; BIA activity, numerical color intensity scale 0-10 [6]: 3 and 2; cytotoxicity, zone diameter ([10]; 25 μg/disk): 5 mm; cytotoxicity, zone diameter ([10]; 50 μg/disk): 5 mm; cytotoxicity, zone diameter ([10]; 100 μg/disk): 7 mm
Nc1ncc([C@@H]2[C@@H](CNC(=O)c3cc(Br)c(Br)[nH]3)[C@H](CNC(=O)c3cc(Br)c(Br)[nH]3)[C@H]2c2cnc(N)[nH]2)[nH]1 (relative stereo) [Compound 3a, Dibromosceptrin Acetate] | 0 | 7 | 7 | 0 | 10 | 10 | 8 to 10 | 11 to 15 | 11 to 15 | 11 to 15 | 9 | 12 | 14 | < 7 | 8 to 10 | 11 to 15 | 0 | 10 | - | ++ | zone of inhibition at 50 µg/disc [3, 13]: 11 mm; zone of inhibition at 200 µg/disc [4, 15]: 12 mm; HSV-1 activity ([5]; 100 μg/disk): +++; BIA activity [6]: somewhat less active; BIA activity, numerical color intensity scale 0-10 [6]: 3 and 2; cytotoxicity, zone diameter ([10]; 25 μg/disk): 5 mm; cytotoxicity, zone diameter ([10]; 50 μg/disk): 5 mm; cytotoxicity, zone diameter ([10]; 100 μg/disk): 7 mm
